Like-named read-outs stand apart in the source and are kept apart here.
Tests used:
[1] = system: MDA-MB-468; assay: 13C3 Serine Assay MDA-MB-468 (13C3 serine levels by LC/MS/MS); type: cell-based; conditions: Homo sapiens
Description: Cells are cultivated in Medium I in a 75 mL flask.
Day 1: 5000 cells in 180 μL Medium I/well were seeded into a 96-well plate. Plates were incubated at 37° C. in a 5% CO2 incubator overnight.
Day 2: 10 mM DMSO stock from test compounds were serially pre-diluted with Medium I (See dilution scheme: for the first well 20 μL DMSO stock are diluted with 180 μL Medium I. From this 1000 μM solution further seven 1:3 (1+2) dilution are prepared with Medium I). 20 μL of these pre-dilutions are transferred in duplicates to the 96-well plate of Day 1. After incubation at 37° C. in a CO2 incubator for 1 hour the medium was removed, 100 μL PBS (tempered to room temperature) added and subsequently removed again.
180 μL Medium II were then added per well and 20 μL of serial dilutions of test compounds in Medium II (as described before) were transferred per well as above. After 180 minutes incubation at 37° C. in a CO2 incubator the medium was again cautiously removed.
After the addition of 100 μL methanol: H2O (80:20, v:v, pre-cooled to −80° C.) the plates were sealed immediately and frozen at −80° C.
At day of measurement plates were thawn, centrifuged and the supernatant evaporated. The samples were resuspended in 100 μl water for tandem mass spectrometry.
^13C3 serine levels were analyzed with LC/MS/MS using Multiple Reaction Monitoring (MRM).
IC50 values were computed from these values using a 4 parametric logistic model.

[2] = target: PHGDH (Homo sapiens (Human), UniProt O43175); assay: 3-Phosphoglycerate Dehydrogenase (PHGDH) Fluorescence Intensity Assay, run at two NAD/3-PG ratios: PHGDH_HIGH_NAD/3-PG (250 μM NAD/500 μM 3-PG) and PHGDH_500_NAD/3-PG (500 μM NAD/500 μM 3-PG); type: biochemical
Sequence of PHGDH (O43175 2-533 limits assumed): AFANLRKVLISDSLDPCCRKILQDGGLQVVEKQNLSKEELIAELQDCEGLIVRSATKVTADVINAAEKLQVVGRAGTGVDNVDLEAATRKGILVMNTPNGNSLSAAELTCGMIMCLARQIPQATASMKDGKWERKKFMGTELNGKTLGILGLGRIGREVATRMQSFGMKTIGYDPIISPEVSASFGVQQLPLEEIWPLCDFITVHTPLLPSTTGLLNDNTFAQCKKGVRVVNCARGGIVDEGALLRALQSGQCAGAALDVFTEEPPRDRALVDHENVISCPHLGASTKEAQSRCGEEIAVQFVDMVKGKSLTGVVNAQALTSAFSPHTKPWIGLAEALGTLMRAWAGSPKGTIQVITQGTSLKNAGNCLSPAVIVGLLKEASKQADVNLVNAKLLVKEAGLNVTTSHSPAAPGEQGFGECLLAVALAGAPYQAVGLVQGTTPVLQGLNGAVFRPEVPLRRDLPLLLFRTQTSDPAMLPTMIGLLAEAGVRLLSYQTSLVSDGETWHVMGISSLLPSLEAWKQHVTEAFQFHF
Excerpt: This assay is used to identify compounds which inhibit the enzymatic activity of PHGDH which catalyzes the reaction of 3-Phosphoglycerate (3-PG) and NAD to 3-Phosphohydroxypyruvate and NADH.
The produced NADH is used in a coupled reaction for Diaphorase mediated reduction of Resazurin to Resorufin which can be measured in a Fluorescence Intensity readout.
The full length version of PHGDH enzyme was expressed in E. coli with an N-terminal HIS-tag and a TEV cleavage site.
The 3-Phosphoglycerate substrate was purchased from Sigma. NAD, Diaphorase and Resazurin were purchased from Sigma Aldrich.
Compounds are dispensed onto assay plates (black, low volume, flat bottom 384 well, Corning) using an Access Labcyte Workstation with the Labcyte Echo 55× from a DMSO solution. For the chosen highest assay concentration of 100 μM, 150 nl of compound solution are transferred from a 10 mM DMSO compound stock solution. A series of 11 concentrations (10 1:5 steps) is transferred for each compound.
The assay has been performed at two different NAD/3-PG ratios (final assay concentrations):
Plates are kept at room temperature. After 240 minutes incubation time the fluorescence signal is measured in a PerkinElmer Envision HTS Multilabel Reader with an excitation wavelength at 530-560 nm and an emission wavelength at 590 nm.
Each plate contains negative controls (diluted DMSO instead of test compound; reaction as described with PHGDH protein) and positive controls (diluted DMSO instead of test compound; reaction as described with buffer instead of PHGDH protein). Negative and positive control values are used for normalization.
IC50 values are calculated and analyzed in the MEGALAB IC50 application using a 4 parametric logistic model.

[3] = MDA-MB-468, read-out: IC50 (13CSERINE)
[4] = 250 μM NAD/500 μM 3-PG, read-out: IC50 (PHGDH_HIGH_NAD/3-PG)
[5] = MDA-MB-468 cells, 13C3 serine levels by LC/MS/MS, read-out: IC50 (13CSERINE)

| SMILES | IC50 [1, 3] | IC50 [2, 4] | IC50 [1, 5] | IC50 ([2]; 500 μM NAD/500 μM 3-PG, read-out: IC50 (PHGDH_500_NAD/3-PG)) |
| --- | --- | --- | --- | --- |
| Cc1cc(Cl)c2cc(C(=O)N[C@H](C)c3ccc(S(=O)(=O)CC(=O)O)cc3)n(C)c2c1 [Example 03-009, 2-{4-[(1R)-1-[(4-chloro-1,6-dimethyl-1H-indol-2-yl)formamido]ethyl]benzenesulfonyl}acetic acid] | 3570 nM | 8 nM |  |  |
| CCOC(=O)C(C)(C)S(=O)(=O)c1ccc([C@@H](C)NC(=O)c2cc3c(Cl)cc(C)cc3n2C)cc1 [Example 05-003, ethyl 2-{4-[(1R)-1-[(4-chloro-1,6-dimethyl-1H-indol-2-yl)formamido]ethyl]benzenesulfonyl}-2-methylpropanoate] |  | 15900 nM | 30.2 nM |  |
| Cc1cc(Cl)c2cc(C(=O)N[C@H](C)c3ccc(S(=O)(=O)C(C)C(=O)OC(C)C)cc3)n(C)c2c1 (stereo partly drawn) [Example 05-004, propan-2-yl 2-{4-[(1R)-1-[(4-chloro-1,6-dimethyl-1H-indol-2-yl)formamido]ethyl]benzenesulfonyl}propanoate] |  | 11800 nM | 10.1 nM |  |
| CCOC(=O)CS(=O)(=O)c1ccc([C@@H](C)NC(=O)c2cc(-c3cccc4cc[nH]c34)nn2C)cc1 [Example 02-005, ethyl 2-{4-[(1R)-1-{[3-(1H-indol-7-yl)-1-methyl-1H-pyrazol-5-yl]formamido}ethyl]benzenesulfonyl}acetate] |  | 3000 nM | 64.8 nM |  |
| COC(=O)CS(=O)(=O)c1ccc([C@@H](C)NC(=O)c2cc3c(Cl)cc(C)cc3n2C)cc1 [Example 01-012, methyl 2-{4-[(1R)-1-[(4-chloro-1,6-dimethyl-1H-indol-2-yl)formamido]ethyl]benzenesulfonyl}acetate] |  | 412 nM | 52.5 nM |  |
| CCOC(=O)CS(=O)(=O)c1ccc([C@@H](C)NC(=O)c2cc(-c3ccc(F)cc3)nn2C)cc1 [Example 02-004, ethyl 2-{4-[(1R)-1-{[3-(4-fluorophenyl)-1-methyl-1H-pyrazol-5-yl]formamido}ethyl]benzenesulfonyl}acetate] |  | 3100 nM | 62.1 nM |  |
| COC(=O)CS(=O)(=O)c1ccc([C@@H](C)NC(=O)c2cc3cc(Cl)c(-c4cnn(CCN5CCOCC5)c4)cc3n2C)cc1 [Example 01-027, methyl 2-{4-[(1R)-1-[(5-chloro-1-methyl-6-{1-[2-(morpholin-4-yl)ethyl]-1H-pyrazol-4-yl}-1H-indol-2-yl)formamido]ethyl]benzenesulfonyl}acetate] |  | 248 nM | 34.2 nM |  |
| Cc1cc2c(cc(C(=O)N[C@H](C)c3ccc(S(=O)(=O)CC(=O)O)cc3)n2C)c(Cl)c1Cl [Example 03-005, 2-{4-[(1R)-1-[(4,5-dichloro-1,6-dimethyl-1H-indol-2-yl)formamido]ethyl]benzenesulfonyl}acetic acid] | 1070 nM | 4 nM |  | 9 nM |
| COCCOC(=O)CS(=O)(=O)c1ccc([C@@H](C)NC(=O)c2cc3c(Cl)c(Cl)c(C)nc3n2C)cc1 [Example 09-003, 2-methoxyethyl 2-{4-[(1R)-1-({4,5-dichloro-1,6-dimethyl-1H-pyrrolo[2,3-b]pyridin-2-yl}formamido)ethyl]benzenesulfonyl}acetate] |  | 286 nM | 82.8 nM |  |
| CCOC(=O)CS(=O)(=O)c1ccc([C@@H](CO)NC(=O)c2cc3c(Cl)cc(C)cc3n2C)cc1 [Example 01-005, ethyl 2-{4-[(1S)-1-[(4-chloro-1,6-dimethyl-1H-indol-2-yl)formamido]-2-hydroxyethyl]benzenesulfonyl}acetate] |  | 223 nM | 3.3 nM |  |
| CC(C)OC(=O)CS(=O)(=O)c1ccc([C@@H](C)NC(=O)c2cc3cc(Cl)c(-c4cnn(CCN5CCOCC5)c4)cc3n2C)cc1 [Example 01-026, propan-2-yl 2-{4-[(1R)-1-[(5-chloro-1-methyl-6-{1-[2-(morpholin-4-yl)ethyl]-1H-pyrazol-4-yl}-1H-indol-2-yl)formamido]ethyl]benzenesulfonyl}acetate] |  | 1350 nM | 35.9 nM |  |

Reference: US11304929B2, “Tosylacetate based compounds and derivatives thereof as PHGDH inhibitors” (priority 2017, dated 2022)
